Experimental data as given in paper PMC9324262, “Selective CDK9 Inhibition by Natural Compound Toyocamycin in Cancer Cells” (Cancers, 2022).

Tested on: YB5 cells
Test: GFP reactivation in YB5 cell-based system (flow cytometry)
Set-up: species or system human
Procedure: YB5 cells are derived from SW48 cells (human colon cancer cell line), and contain a single insertion of a DNA hypermethylated cytomegalovirus (CMV) promoter driving the green fluorescent protein (GFP) gene, as previously described. YB5 cells are cultured in L-15 medium supplemented with 10% fetal bovine serum and grown in log-phase in 1% CO2 atmosphere. YB5 cells were authenticated by DNA fingerprinting prior to drug screening and validation experiments. GFP expression in YB5 cells is silenced in >99.9% of the cells due to the CMV promoter DNA hypermethylation and repressive chromatin marks around the transcriptional start site. The human HCT116 colon cancer-derived GFP-reporter system, comprising a GFP gene under the control of an endogenously hypermethylated SFRP1 gene promoter, was kindly provided by Dr. Stephen Baylin (Johns Hopkins University). These cells are cultured in McCoy’s 5A medium supplemented with 10% fetal bovine serum and grown in log-phase in 5% CO2 atmosphere at 37 °C. The 451-Lu-BR melanoma cells were a kind gift from Dr. Raza Zaidi (Fels Institute for Cancer Research and Molecular Biology, Temple University School of Medicine, Philadelphia). These cells are derived from parental 451-LU cells that have acquired resistance to BRAF inhibitors. The 451-Lu-BR cells were cultured at 37 °C in Dulbecco’s Modified Eagle Medium (DMEM) supplemented with 10% fetal bovine serum, L-alanyl-L-glutamine (2 mM), and gentamycin (50 µg/mL) in 5% CO2 at 37 °C. The natural drug library (natural product set II) containing 120 compounds was obtained from the National Cancer Institute Developmental Therapeutics Program. Natural compounds were dissolved in DMSO (10 mM) in 96-well plates that were kept at −80°C until use. Toyocamycin, analogues of toyocamycin (sangivamycin, tubercidin, 3-deaza-adenosine, DZNep), CDK inhibitors, and epigenetic drugs (decitabine, SAHA, trichostatin A, depsipeptide) were purchased from Sigma-Aldrich (St. Louis, MO, USA,) for validation studies, dissolved in DMSO, and kept at −80 °C until use.
YB5 cells were seeded at 30,000 cell/mL in 96-well plates (6000 cells/well) and treated 3 days after seeding. Cells were exposed to 120 natural compounds in 5 different experimental conditions: (1) 72 h exposure at 10 µM followed by 24 h recovery period prior to analysis; (2) 24 h treatment at 50 µM prior to analysis; (3) 72 h exposure at 10 µM of the compound library followed by 24 h treatment with HDAC inhibitor trichostatin A (200 nM) prior to analysis; (4) 72 h exposure at 10 µM in simultaneous combination with decitabine (50 nM) followed by 24 h recovery period prior to analysis; and (5) 72 h treatment with decitabine (50 nM) followed by 24 h exposure with the natural compound library (50 µM) prior to analysis. The scheme of different dose schedules is shown Figure S1A. During screening, drugs and cell culture media were replaced every day. To ensure the quality and the reproducibility of the screen, each 96-well plate was designed to include 80 natural compounds, 4 untreated wells, 4 wells treated with decitabine (50 nM, 72 h), 4 wells treated with trichostatin A (200 nM, 24 h), and their combination with decitabine (50 nM, 72 h) followed by trichostatin A treatment (200 nM, 24 h) prior to flow cytometry analysis. The percentage of GFP-expressing cells in control wells (untreated or treated with known epigenetic drugs) was measured and was reproducible between different plates.
After treatment, YB5 cells were trypsinized for 15 min and resuspended in L-15 media containing propidium iodide (PI) to stain dead cells. GFP expression and PI staining were quantified by a BD LSR II flow cytometer (BD Biosciences, San Jose, CA, USA). A maximum of 10,000 cells was analyzed per well. Validations were performed using a Millipore Guava flow cytometer (EMD, Millipore, Burlington, MA, USA). […]

`N#Cc1cn([C@@H]2O[C@H](CO)[C@@H](O)[C@H]2O)c2ncnc(N)c12` [toyocamycin, 7-Deaza-7-cyanoadenosine] was tested, and the “GFP-expressing YB5 cells” value (250 nM, 48 h) was “about 10%”, the “YB5 cells expressing GFP” value (5 µM, 72 h) was “More than 60%” and the “GFP expression, % of YB5 cells” value (sequential combination with decitabine, toyocamycin 0.5–5 µM) was “up to 40%”. The “GFP-expressing cells with CDK9 overexpression (HA-CDK9, FLAG-CDK9)” value (toyocamycin 250 nM 48 h, MC180295 500 nM 48 h) was “reduction in the number of GFP-expressing cells”.
